Laboratory results from patent publication EP2924040A1, “2-Amino-1-(o-tolyl)pyrrolo[3,2-b]quinoxaline-3-carboxamide derivates” (Universität Zürich, priority 2014, dated 2015).

Columns and labels:
Breast HS578T = experiment: NCI DTP Human Tumor Cell Line Screen (SRB); assay type: cell-based; conditions: Hs-578T, 48 h
Method: (§1) Compound 2 was further screened against cancer cell lines by the National Cancer Institute (NCI). This screen was performed as per the description provided at http://dtp.nci.nih.gov/branches/btb/ivclsp.html. "The NCI 60 panel cell lines were grown in RPMI 1640 medium supplemented with 5% (v/v) fetal bovine serum and 2 mM L-glutamine at 37° C, 5 % CO2, 95 % air and 100 % relative humidity. Cells were seeded at 5,000 - 40,000 cells/well depending on their doubling time. After 24 hours of incubation, DMSO stock solutions of the compounds (400X) were added at 5 different concentrations (in […] serial dilutions). After 48 h cells were fixed with trichloroacetic acid (10% or 16% final concentration for adherent cells and suspension cells respectively) and incubated for 60 minutes at 4°C. After discarding the supernatant, plates were washed with water (5x) and air dried. Sulforhodamine B (SRB) solution (100 µl) at 0.4 % (w/v) in 1% acetic acid was added to each well and incubated for 10 minutes at 4°C, followed by washing with 1% acetic acid (5x) and air drying. The bound stain was solubilized with 10mM trizma base and determined by absorbance measurement on an automated plate reader at a wavelength of 515 nm. The percentage growth inhibition was calculated as followed, being Tz time zero measurements, C control growth measurements and Ti test growth experiments in the present of the drug. [(Ti-Tz)/(C-Tz)] x 100 for concentrations for which Ti>/=Tz [(Ti-Tz)/Tz] x 100 for concentrations for which Ti<Tz.
(§2) Three dose response parameters were calculated for each cell line. Growth inhibition of 50% (GI50) is calculated from [(Ti-Tz)/(C-Tz)] x 100 = 50 and corresponds to the drug concentration required in order to reduce by 50% the net protein increase in comparison to the control experiments. Total growth inhibition (TGI) is calculated from Ti = Tz. The LC50 indicates the drug concentration needed to reduce by 50% the measured protein at the end of the drug treatment as compared to that of the beginning and is derived from [(Ti-Tz)/Tz] x 100 = -50." Table 2: GI50 in a selection of cancer cell lines of the National Cancer Institute for compound 2

Breast MDA-MB-231 = experiment: NCI DTP Human Tumor Cell Line Screen (SRB); assay type: cell-based; conditions: Breast MDA-MB-231, 48 h
Method: as §1, §2

CNS SNB75 = experiment: NCI DTP Human Tumor Cell Line Screen (SRB); assay type: cell-based; conditions: SNB-75, CNS SNB75, 48 h
Method: as §1, §2

Colon HT29 = experiment: NCI DTP Human Tumor Cell Line Screen (SRB); assay type: cell-based; conditions: HT-29, Colon HT29, 48 h
Method: as §1, §2

Leukemia K562 = experiment: NCI DTP Human Tumor Cell Line Screen (SRB); assay type: cell-based; conditions: Leukemia K562, 48 h
Method: as §1, §2

NSCLC HOP92 = experiment: NCI DTP Human Tumor Cell Line Screen (SRB); assay type: cell-based; conditions: HOP-92, NSCLC HOP92, 48 h
Method: as §1, §2

Renal A498 = experiment: NCI DTP Human Tumor Cell Line Screen (SRB); assay type: cell-based; conditions: Renal A498, 48 h
Method: as §1, §2

Renal RXF393 = experiment: NCI DTP Human Tumor Cell Line Screen (SRB); assay type: cell-based; conditions: RXF 393, Renal RXF393, 48 h
Method: as §1, §2

[1] = test system: MDA-MB-231 breast cancer cells; experiment: Efficacy in a Xenograft Mouse Model; assay type: in vivo; conditions: female NCr Nu/Nu mice, subcutaneous MDA-MB-231, 50 mg/kg oral twice daily, 21 days
Method: The effect of compound 2 on MDA-MB-231 breast cancer cells was examined. The breast cancer cells were implanted subcutaneously in xenograft mouse models and the development of the body weight and the tumor volume were observed over time (21 days). Group 1 is the vehicle control group consisting of 9 animals, whereas group 2 consisted of 9 animals receiving 50 mg/kg of compound 2 twice-daily.
9 week old female NCr Nu/Nu mice (Charles River Laboratories, Inc.) were injected at the flank with 5x10^6 MDA-MB-231 cells. Once tumor volume reached 108-126 mm^3 (as measured by digital caliper) mice were randomized into a treatment and vehicle-control group of 9 animals each. The treatment group received oral doses of 50 mg/kg of compound 2 twice daily for 21 days (with the exception of a single dose on the first day), formulated as a homogeneous suspension in DMSO/1% methylcellulose (5/95, v/v). The control group received the same formulation but excluding compound 2. Tumor volume of all mice was evaluated bi-weekly up to day 19.

[2] = test system: NCI-60 panel of cancer cell-lines; experiment: NCI-60 DTP Human Tumor Cell Line Screen at 5 doses (whole panel); assay type: cell-based; conditions: SNB-75, K562, A498, LOX IMV1, HS 578T and MDA-MB-231 among others (Fig. 5)
Method: Compound 2 was screened by the National Cancer Institute (NCI) at 5 doses on the NCI-60 DTP Human Tumor Cell Line Screen.
as §1, with “After discarding the supernatant, plates were washed with water (5x) and air dried. Sulforhodamine B (SRB) solution (100 µl) at 0.4 % (w/v) in 1% acetic acid was added to each well and incubated for 10 minutes at 4°C, followed by washing with 1% acetic acid (5x) and air drying.” left out, “[(Ti-Tz)/(C-Tz)] x 100 for concentrations for which Ti>/=Tz [(Ti-Tz)/Tz] x 100 for concentrations for which Ti<Tz.” left out
Three dose response parameters were calculated for each cell line. […] Total growth inhibition (TGI) is calculated from Ti = Tz. […]

Cc1ccc(O)cc1-n1c(N)c(C(N)=O)c2nc3ccccc3nc21 [Compound 2, 2-Amino-1-(5-hydroxy-2-methylphenyl)-1H-pyrrolo[2,3-b]quinoxaline-3-carboxamide]
GI50 (Breast HS578T): 100 nM
GI50 (Breast MDA-MB-231): 317 nM
GI50 (CNS SNB75): 28 nM
GI50 (Colon HT29): 244 nM
GI50 (Leukemia K562): 229 nM
GI50 (NSCLC HOP92): 152 nM
GI50 (Renal A498): 162 nM
GI50 (Renal RXF393): 361 nM
group-median tumor volume [1]: remarkable group-median tumor volume control
potency (GI50 and/or TGI and/or LC50) relative to select cell-lines [2]: high potency
